Source: the supplement of paper PMC10307832

Key:
Assay in all cases: relative viability (nuclei count vs DMSO), 5 days (fraction); higher = more cells survive
Carboplatin + Tozasertib = compound: C1CC(C1)(C(=O)O)C(=O)O.[NH2-].[NH2-].[Pt+2] [Carboplatin] + Cc1cc(Nc2cc(N3CCN(C)CC3)nc(Sc3ccc(NC(=O)C4CC4)cc3)n2)n[nH]1 [Tozasertib] (partner 0.1 µM)
Method in brief: (§1)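 Medians of duplicate plates are given as relative viability. That measure is the nuclei count in treated wells divided by the count in vehicle wells. Counts were taken on 4× images of lung cancer cell lines in 1536-well plates, 5 days after pin-tool dosing the day after seeding with one drug alone or a fixed anchor-drug dose plus five library-drug doses (not always all listed) in √10 steps.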

GSK126 + Linsitinib = compound: CC[C@H](C)N1C=C(C2=C(C=C(C=C21)C3=CN=C(C=C3)N4CCNCC4)C(=O)NCC5=C(C=C(NC5=O)C)C)C [GSK126] + C[C@]1(O)C[C@@H](c2nc(-c3ccc4ccc(-c5ccccc5)nc4c3)c3c(N)nccn32)C1 [Linsitinib] (partner 1 µM)
Method in brief: as §1

Carboplatin + Vorinostat = compound: C1CC(C1)(C(=O)O)C(=O)O.[NH2-].[NH2-].[Pt+2] [Carboplatin] + O=C(CCCCCCC(=O)Nc1ccccc1)NO [Vorinostat] (partner 1 µM)
Method in brief: as §1

MLN4924 + Phenformin = compound: NS(=O)(=O)OC[C@@H]1C[C@@H](n2ccc3c(N[C@H]4CCc5ccccc54)ncnc32)C[C@@H]1O [MLN4924] + N=C(N)NC(=N)NCCc1ccccc1 [Phenformin] (partner 250 µM)
Method in brief: as §1

Cell Line | relative viability (Carboplatin + Tozasertib; first compound 0.08 µM) | relative viability (Carboplatin + Tozasertib; first compound 0.253 µM) | relative viability (Carboplatin + Tozasertib; first compound 0.8 µM) | relative viability (Carboplatin + Tozasertib; first compound 2.53 µM) | relative viability (Carboplatin + Tozasertib; first compound 8 µM) | relative viability (GSK126 + Linsitinib; first compound 0.08 µM) | relative viability (GSK126 + Linsitinib; first compound 0.253 µM) | relative viability (GSK126 + Linsitinib; first compound 0.8 µM) | relative viability (GSK126 + Linsitinib; first compound 2.53 µM) | relative viability (GSK126 + Linsitinib; first compound 8 µM) | relative viability (Carboplatin + Vorinostat; first compound 0.08 µM) | relative viability (Carboplatin + Vorinostat; first compound 0.253 µM) | relative viability (Carboplatin + Vorinostat; first compound 0.8 µM) | relative viability (Carboplatin + Vorinostat; first compound 2.53 µM) | relative viability (Carboplatin + Vorinostat; first compound 8 µM) | relative viability (MLN4924 + Phenformin; first compound 0.04 µM) | relative viability (MLN4924 + Phenformin; first compound 0.1265 µM) | relative viability (MLN4924 + Phenformin; first compound 0.4 µM) | relative viability (MLN4924 + Phenformin; first compound 1.265 µM) | relative viability (MLN4924 + Phenformin; first compound 4 µM)
NCI-H322M | 0.534 | 0.532 | 0.56 | 0.481 | 0.479 | 0.953 | 0.949 | 0.884 | 1.01 | 0.937 | 0.994 | 0.855 | 0.928 | 0.91 | 0.709 | 0.908 | 0.65 | 0.473 | 0.248 | 0.306
NCI-H358 | 0.113 | 0.101 | 0.107 | 0.108 | 0.114 | 0.939 | 0.768 | 0.785 | 0.675 | 0.738 | 0.735 | 0.668 | 0.681 | 0.664 | 0.53 | 0.354 | 0.366 | 0.171 | 0.0905 | 0.0916
NCI-H441 | 0.746 | 0.687 | 0.508 | 0.454 | 0.469 | 0.684 | 0.583 | 0.599 | 0.578 | 0.651 | 0.865 | 0.835 | 0.588 | 0.785 | 0.369 | 0.79 | 0.554 | 0.333 | 0.211 | 0.227
NCI-H460 | 0.54 | 0.462 | 0.387 | 0.237 | 0.168 | 0.76 | 0.784 | 0.787 | 0.798 | 0.969 | 0.761 | 0.629 | 0.582 | 0.235 | 0.076 | 0.548 | 0.448 | 0.496 | 0.0336 | 0.0252
NCI-H520 | 0.5 | 0.433 | 0.438 | 0.389 | 0.459 | 1.12 | 1.03 | 0.915 | 1.07 | 1.11 | 0.668 | 0.745 | 0.837 | 0.775 | 0.395 | 0.566 | 0.439 | 0.429 | 0.265 | 0.238
NCI-H596 | 0.985 | 0.98 | 0.907 | 0.77 | 0.491 | 1.02 | 0.99 | 1.03 | 1.16 | 1.15 | 0.669 | 0.654 | 0.509 | 0.368 | 0.467 | 0.751 | 0.914 |  | 0.835 | 0.763
NCI-H647 | 0.402 | 0.488 | 0.272 | 0.239 | 0.229 | 1.47 | 1.28 | 1.17 | 1.07 | 1.08 | 0.39 | 0.493 | 0.609 | 0.646 | 0.175 | 0.367 | 0.348 | 0.118 | 0.0487 | 0.0541
NCI-H650 | 0.768 | 0.766 | 0.638 | 0.661 | 0.453 | 1.11 | 0.789 | 0.934 | 0.974 | 1.13 | 0.504 | 0.457 | 0.503 | 0.366 | 0.275 | 0.355 | 0.287 | 0.224 | 0.197 | 0.199
